In patent US9656962B2, “Ring-contracted morphinans and the use thereof” (Purdue Pharma L.P., priority 2013, dated 2017):

Assays:
Assay type in all cases: biochemical
μ-opioid receptor [1] = molecular target: T1, μ-opioid receptor (Homo sapiens (Human), UniProt P35372); assay: μ-opioid receptor [35S]GTPγS functional assay, U-2 OS cells (Table 5)
Method: (§1) μ-Opioid Receptor Functional Assay Procedures: [^35S]GTPγS functional assays were conducted using freshly thawed μ-receptor membranes prepared in-house from a cell line expressing recombinant μ opioid receptor in a HEK-293, CHO or U-2 OS cell background, or purchased from a commercial source (Perkin Elmer, Shelton, Conn.; or DiscovRx, Fremont, Calif.). Assay reactions were prepared by sequentially adding the following reagents to binding buffer (100 mM NaCl, 10 mM MgCl2, 20 mM HEPES, pH 7.4) on ice (final concentrations indicated): membrane protein (0.026 mg/mL), saponin ([…]), GDP ([…]) and [^35S]GTPγS (0.20 nM; Perkin Elmer, Shelton, Conn.). The prepared membrane solution (190 μl/well) was transferred to 96-shallow well polypropylene plates containing 10 μl of 20× concentrated stock solutions of the agonist [D-Ala^2, N-methyl-Phe^4 Gly-ol^5]-enkephalin (DAMGO) prepared in dimethyl sulfoxide (DMSO). Plates were incubated for 30 min at about 25° C. with shaking Reactions were terminated by rapid filtration onto 96-well Unifilter GF/B filter plates (Perkin Elmer, Shelton, Conn.) using a 96-well tissue harvester (Perkin Elmer, Shelton, Conn.) followed by three filtration washes with 200 μl of ice-cold wash buffer (10 mM NaH2PO4, 10 mM Na2HPO4, pH 7.4). Filter plates were subsequently dried at 50° C. for 2-3 hours. BetaScint scintillation cocktail (Perkin Elmer, Shelton, Conn.) was added (50 μl/well) and plates were counted using a Packard Top-Count for 1 min/well. Data were analyzed using the sigmoidal dose-response curve fitting functions in GraphPad PRISM v. 3.0, or an in-house function for non-linear, sigmoidal dose-response curve-fitting. [^35S]GTPγS functional assays can also be conducted using freshly thawed μ-receptor membranes prepared from a cell line expressing recombinant μ opioid receptor in a CHO-K1 cell background.
μ GTP Emax (%) is the maximal effect elicited by a compound relative to the effect elicited by DAMGO, a standard μ agonist.

κ-opioid receptor = κ-opioid receptor (Homo sapiens (Human), UniProt P41145); assay: κ-opioid receptor [35S]GTPγS functional assay, U-2 OS cells (Table 5)
Method: κ-Opioid Receptor Functional Assay Procedures: Functional [^35S]GTPγS binding assays were conducted as follows. κ opioid receptor membrane solution was prepared by sequentially adding final concentrations of 0.026 μg/μl κ membrane protein (in-house), 10 μg/mL saponin, 3 μM GDP and 0.20 nM [^35S]GTPγS to binding buffer (100 mM NaCl, 10 mM MgCl2, 20 mM HEPES, pH 7.4) on ice. The prepared membrane solution (190 μl/well) was transferred to 96-shallow well polypropylene plates containing 10 μl of 20× concentrated stock solutions of agonist prepared in DMSO. Plates were incubated for 30 min at a temperature of about 25° C. with shaking. Reactions were terminated by rapid filtration onto 96-well Unifilter GF/B filter plates (Perkin Elmer, Shelton, Conn.) using a 96-well tissue harvester (Packard) and followed by three filtration washes with 200 μl ice-cold binding buffer (10 mM NaH2PO4, 10 mM Na2HPO4, pH 7.4). Filter plates were subsequently dried at 50° C. for 2-3 hours. Fifty μl/well scintillation cocktail (Perkin Elmer, Shelton, Conn.) was added and plates were counted in a Packard Top-Count for 1 min/well.
κ GTP Emax (%) is the maximal effect elicited by a compound relative to the effect elicited by U69,593.
The following TABLE 5 provides results on the activity response of certain Compounds of the Invention at the μ- and κ-opioid receptors determined as described above using U-2 OS cells.

μ-opioid receptor [2] = molecular target: T1, μ-opioid receptor; assay: μ-opioid receptor [35S]GTPγS functional assay, HEK-293 cells (Table 6); settings: for Emax: relative to DAMGO; for EC50: μ GTP
Method: as §1
μ GTP Emax (%) is the maximal effect elicited by a compound relative to the effect elicited by DAMGO, a standard μ agonist. Generally, the μ GTP Emax (%) value measures the efficacy of a compound to treat or prevent pain or other Conditions.
The following TABLE 6 provides results on the activity response of certain Compounds of the Invention at the μ- and κ-opioid receptors determined as described above using HEK-293 cells.

Row | SMILES | Emax (μ-opioid receptor [2]) | EC50 (μ-opioid receptor [2]) | EC50 (μ-opioid receptor [2]; bound given in μM) | further results
1 | NC(=O)[C@H]1C[C@]23CCN(CC(F)(F)F)[C@H](Cc4ccc(O)cc42)[C@]3(O)C1 [Compound 76, (2S,3aS,4R,9bS)-3a,8-dihydroxy-12-(2,2,2-trifluoroethyl)-1,2,3,3a,4,5-hexahydro-4,9b-(epiminoethano)cyclo-penta[a]naphthalene-2-carboxamide] | – | – | – | Emax (μ-opioid receptor [1]; relative to DAMGO): 2%; EC50 (μ-opioid receptor [1]; μ GTP, bound given in μM): > 20 µM; Emax (κ-opioid receptor; relative to U69,593): 81 ± 6.66%; EC50 (κ-opioid receptor; κ GTP): 923 ± 31.9 nM
2 | NC(=O)c1ccc2c(c1)[C@]13CCN(CC4CC4)[C@H](C2)[C@]1(O)C[C@@H](C(=O)NCCN1CCOCC1)C3 [Compound 119, (2S,3aS,4R,9bS)-12-(cyclopropylmethyl)-3a-hydroxy-N^2-(2-morpholinoethyl)-1,2,3,3a,4,5-hexahydro-4,9b-(epimino-ethano)cyclopenta[a]naphthalene-2,8-dicarboxamide] | 18.4 ± 1.55% | 0.0134 ± 0.00419 µM | – | –
3 | O=C(NCCc1ccc(Cl)cc1Cl)[C@@H]1C[C@]23CCN(CC4CC4)[C@H](Cc4ccc(O)cc42)[C@]3(O)C1 [Compound 130, (2R,3aS,4R,9bS)-12-(cyclopropylmethyl)-N-(2,4-dichlorophenethyl)-3a,8-dihydroxy-1,2,3,3a,4,5-hexahydro-4,9b-(epiminoethano)cyclopenta[a]naphthalene-2-carboxamide] | 0% | – | > 20 µM | –
4 | Cc1c(Cl)cccc1CNC(=O)[C@H]1C[C@]23CCN(CC4CC4)[C@H](Cc4ccc(O)cc42)[C@]3(O)C1 [Compound 138, (2S,3aS,4R,9bS)-N-(3-chloro-2-methylbenzyl)-12-(cyclopropylmethyl)-3a,8-dihydroxy-1,2,3,3a,4,5-hexahydro-4,9b-(epiminoethano)cyclopenta-[a]naphthalene-2-carboxamide] | 52.4 ± 1.72% | 0.00071 ± 6.8e-05 µM | – | –
5 | O=C(NCc1ccccc1O)[C@@H]1C[C@]23CCN(CC4CC4)[C@H](Cc4ccc(O)cc42)[C@]3(O)C1 [Compound 149, (2R,3aS,4R,9bS)-12-(cyclopropylmethyl)-3a,8-dihydroxy-N-(2-hydroxybenzyl)-1,2,3,3a,4,5-hexahydro-4,9b-(epimino-ethano)cyclopenta[a]naphthalene-2-carboxamide] | 0% | – | > 20 µM | –
6 | Cc1ccc(CNC(=O)[C@H]2C[C@]34CCN(CC5CC5)[C@H](Cc5ccc(O)cc53)[C@]4(O)C2)cc1Cl [Compound 137, (2S,3aS,4R,9bS)-N-(3-chloro-4-methylbenzyl)-12-(cyclopropylmethyl)-3a,8-dihydroxy-1,2,3,3a,4,5-hexahydro-4,9b-(epiminoethano)cyclopenta-[a]naphthalene-2-carboxamide] | 55.5 ± 0.31% | 0.00045 ± 6.1e-05 µM | – | –
7 | N#Cc1ccc2c(c1)[C@]13CCN(CC4CC4)[C@H](C2)[C@]1(O)C[C@@H](C(=O)NCCN1CCOCC1)C3 [Compound 123, (2S,3aS,4R,9bS)-8-cyano-12-(cyclopropylmethyl)-3a-hydroxy-N-(2-morpholinoethyl)-1,2,3,3a,4,5-hexahydro-4,9b-(epiminoethano)cyclopenta-[a]naphthalene-2-carboxamide] | 10.5 ± 1.07% | 2.92 ± 0.378 µM | – | –
8 | CN1CC[C@]23C[C@H](C(=O)NCc4ccc(Cl)c(Cl)c4)C[C@@]2(O)[C@H]1Cc1ccc(O)cc13 [Compound 101, (2S,3aS,4R,9bS)-N-(3,4-dichlorobenzyl)-3a,8-dihydroxy-12-methyl-1,2,3,3a,4,5-hexahydro-4,9b-(epiminoethano)cyclo-penta[a]naphthalene-2-carboxamide] | 96.7 ± 2.19% | 0.00158 ± 0.00022 µM | – | –
9 | O=C(NCc1ccc(O)c(O)c1)[C@@H]1C[C@]23CCN(CC4CC4)[C@H](Cc4ccc(O)cc42)[C@]3(O)C1 [Compound 140, (2R,3aS,4R,9bS)-12-(cyclopropylmethyl)-N-(3,4-dihydroxybenzyl)-3a,8-dihydroxy-1,2,3,3a,4,5-hexahydro-4,9b-(epimino-ethano)cyclopenta[a]naphthalene-2-carboxamide] | 0.33 ± 0.67% | – | > 20 µM | –
10 | CC(C)N1CCN(C(=O)[C@@H]2C[C@]34CCN(CC5CC5)[C@H](Cc5ccc(O)cc53)[C@]4(O)C2)CC1 [Compound 132, ((2R,3aS,4R,9bS)-12-(cyclopropylmethyl)-3a,8-dihydroxy-1,2,3,3a,4,5-hexahydro-4,9b-(epiminoethano)cyclopenta-[a]naphthalen-2-yl)(4-isopropylpiperazin-1-yl)methanone] | -1% | – | > 20 µM | –
11 | O=C(NCc1cccc(O)c1)[C@@H]1C[C@]23CCN(CC4CC4)[C@H](Cc4ccc(O)cc42)[C@]3(O)C1 [Compound 142, (2R,3aS,4R,9bS)-12-(cyclopropylmethyl)-3a,8-dihydroxy-N-(3-hydroxybenzyl)-1,2,3,3a,4,5-hexahydro-4,9b-(epimino-ethano)cyclopenta[a]naphthalene-2-carboxamide] | 0% | – | > 20 µM | –
12 | CN1CC[C@]23C[C@@H](C(=O)NCc4ccc(Cl)c(Cl)c4)C[C@@]2(O)[C@H]1Cc1ccc(O)cc13 [Compound 99, (2R,3aS,4R,9bS)-N-(3,4-dichlorobenzyl)-3a,8-dihydroxy-12-methyl-1,2,3,3a,4,5-hexahydro-4,9b-(epiminoethano)-cyclopenta[a]naphthalene-2-carboxamide] | 73.3 ± 1.2% | 0.244 ± 0.0295 µM | – | –
13 | O=C(NCc1cccc(Cl)c1)[C@@H]1C[C@]23CCN(CC4CC4)[C@H](Cc4ccc(O)cc42)[C@]3(O)C1 [Compound 152, (2R,3aS,4R,9bS)-N-(3-chlorobenzyl)-12-(cyclopropylmethyl)-3a,8-dihydroxy-1,2,3,3a,4,5-hexahydro-4,9b-(epimino-ethano)cyclopenta[a]naphthalene-2-carboxamide] | 4.45 ± 3.18% | – | > 20 µM | –
14 | CC(C)CNC(=O)[C@H]1C[C@]23CCN(C)[C@H](Cc4ccc(O)cc42)[C@]3(O)C1 [Compound 102, (2S,3aS,4R,9bS)-3a,8-dihydroxy-N-isobutyl-12-methyl-1,2,3,3a,4,5-hexahydro-4,9b-(epiminoethano)cyclo-penta[a]naphthalene-2-carboxamide] | 49.5 ± 4.94% | 0.655 ± 0.128 µM | – | –
15 | NC(=O)c1ccc2c(c1)[C@]13CCN(CC4CC4)[C@H](C2)[C@]1(O)C[C@H](C(=O)NCCN1CCOCC1)C3 [Compound 118, (2R,3aS,4R,9bS)-12-(cyclopropylmethyl)-3a-hydroxy-N^2-(2-morpholinoethyl)-1,2,3,3a,4,5-hexahydro-4,9b-(epimino-ethano)cyclopenta[a]naphthalene-2,8-dicarboxamide] | 13.2 ± 1.17% | 0.175 ± 0.0099 µM | – | –
16 | Cc1ccc(CNC(=O)[C@@H]2C[C@]34CCN(CC5CC5)[C@H](Cc5ccc(C(N)=O)cc53)[C@]4(O)C2)cc1 [Compound 117, (2R,3aS,4R,9bS)-12-(cyclopropylmethyl)-3a-hydroxy-N^2-(4-methylbenzyl)-1,2,3,3a,4,5-hexahydro-4,9b-(epimino-ethano)cyclopenta[a]naphthalene-2,8-dicarboxamide] | -1.21 ± 0.21% | – | > 20 µM | –
17 | O=C(NCc1cc(Cl)ccc1Cl)[C@@H]1C[C@]23CCN(CC4CC4)[C@H](Cc4ccc(O)cc42)[C@]3(O)C1 [Compound 151, (2R,3aS,4R,9bS)-12-(cyclopropylmethyl)-N-(2,5-dichlorobenzyl)-3a,8-dihydroxy-1,2,3,3a,4,5-hexahydro-4,9b-(epimino-ethano)cyclopenta[a]naphthalene-2-carboxamide] | -1% | – | > 20 µM | –
